From patent US4024139A, “2,3,4,4A-Tetrahydro-10H-1,2-oxazino[3,2-b](1,3)benzoxazin-10-ones” (Carter-Wallace, Inc., priority 1972, dated 1977)

Test system: hind paw edema induced by carrageenin in the rat
Test: hind paw edema induced by carrageenin in the rat (anti-inflammatory activity, oral)
Assay type: in vivo, rat (male, Sprague-Dawley)
Conditions: oral intubation 1 h before carrageenin, foot volume 3 h later, ED50 = dose in which edema formation is inhibited by 25 percent or more in 50 percent of the rats vs. mean of controls
Experimental: The procedure described below (Winters et al, Proc. Soc., Exp. Biol. Med., 111, 544, 1962) was used to establish the effectiveness of these compounds in the hind paw edema induced by carrageenin in the rat.
Male rats of the Sprague-Dawley strain (Charles River Laboratories) weighing 100 ± 20 grams were used for this study. Six animals were used for each drug dose. The drug was suspended in 1 percent aqueous solution of gum acacia, and each rat received 10 ml/kg of the appropriate concentration of drug suspension by oral intubation; controls were given a similar volume of the vehicle. One hour later, edema in the right hind paw was induced by the subplantar injection of 0.05 ml. of 1 percent calcium carrageenin dissolved in 0.15N sodium chloride. The volume of the foot was determined immediately and again 3 hours later. The difference was recorded as edema volume. Foot volume was measured by immersion of the foot in water at the level of the lateral malleolus, and determining the volume of water displaced by the foot. The ED50 may be defined as the dose in which edema formation is inhibited by 25 percent or more in 50 percent of the rats when compared to the mean value of the controls.

Going from `O=C1c2ccccc2OC2CCCON12` (stereo not drawn) [Example 2, 2,3,4,4a-tetrahydro-10H-1,2-oxazino(3,2-b) (1,3)benzoxazin-10-one] to `Cc1ccc2c(c1)C(=O)N1OCCCC1O2` (stereo not drawn) [Example 3, 8-methyl-2,3,4,4a-tetrahydro-10H-1,2oxazino (3,2-b)(1,3)benzoxazine-10-one], the ED50 rises from 65 ± 22 mg/kg to greater than 300 mg/kg.

`CC1CCON2C(=O)c3cc(Cl)ccc3OC12` (stereo not drawn) [Example 6, 8-chloro-4-methyl-2,3,4,4a-tetrahydro-10H-1,2-oxazino(3,2-b)(1,3)benzoxazin-10-one] and `CC1CCC2Oc3ccc(Cl)cc3C(=O)N2O1` (stereo not drawn) [Example 4, 8-chloro-2-methyl-2,3,4,4a-tetrahydro-10H-1,2-oxazino(3,2-b)(1,3)benzoxazin-10-one] are within error of each other in ED50: 195 ± 96 mg/kg for the first, 270 ± 185 mg/kg for the second.

`CC1CON2C(=O)c3cc(Cl)ccc3OC2C1` (stereo not drawn) [Example 5, 8-chloro-3-methyl-2,3,4,4a-tetrahydro-10H-1,2-oxazino(3,2-b)(1,3)benzoxazin-10-one] and `O=C1c2cc(Cl)ccc2OC2CCCON12` (stereo not drawn) [Example 1, 8-chloro-2,3,4,4a-tetrahydro-10H-1,2-oxazino (3,2-b)(1,3)benzoxazin-10-one] are within error of each other in ED50: 160 ± 73 mg/kg for the first, 100 ± 27 mg/kg for the second.
